Like-named read-outs stand apart in the source and are kept apart here.
Experiments:
[1] = test system: Violence and Self-Laceration; assay: Case history 2, Sibutramine Patient No. 3; type: in vivo, human
Protocol: 2. Violence and Self-Laceration (Problem No. 1) Sibutramine Patient No. 3
They were started on sibutramine 10 mg orally every morning for their violence, self-abuse and obesity.

[2] = test system: Sexual Function, ADD, and Rage Outbursts; assay: Case history 3, Sibutramine Patient No. 100; type: in vivo, human; conditions: sibutramine 10 mg twice a day
Sexual Function and ADD = assay: Case history 4, Sibutramine Patient No. 109; type: in vivo, human
[3] = test system: Sexual Obsessive-Compulsive Behavior, ADD and Executive Function; assay: Case history 6, Sibutramine Patient No. 77; type: in vivo, human
[4] = test system: Sexual Gender Choice Change; assay: Case history 7, Sibutramine Patient No. 99; type: in vivo, human; conditions: sibutramine 10 mg every morning; person
[5] = test system: Tourette's Disease Tics, Violence, and ADHD; assay: Case history 8, Sibutramine Patient No. 47; type: in vivo, human
[6] = test system: Asocial Behavior, Violence, and Hyposexuality; assay: Case history 10, Sibutramine Patient No. 54; type: in vivo, human
[7] = test system: Severe ADHD Refractory to All Other Medications With Executive (Frontal Lobe) Problems
From the text: A person was seen first for a life-long history of severe hyperactivity, distractibility, disorganization, poor memory of studied material, very poor concentration, and school failure despite a high IQ. There was no known history of head injury, other neurological disease, nor metabolic disease.

[8] = test system: Reflex Sympathetic Dystrophy Syndrome (RSDS); assay: Case history 22; type: in vivo, human; conditions: sibutramine 10 mg. b.i.d. Person
From the text: 22. Reflex Sympathetic Dystrophy Syndrome (RSDS)
A person injured their left ankle 14 months prior to their initial visit. The left lower leg then became red and then black, hot, swollen, and extremely painful. RSD was diagnosed and multiple treatments were unsuccessful. After nine months the skin gradually sloughed and the limb turned cold but remained painful, especially to touch. The patient also noted profuse swelling of the affected left leg, a tremor of the left hand, and many visual-spatial problems characteristic of right cerebral dysfunction. They were declared totally disabled. […] This enabled them to discontinue their other medication.

[9] = test system: Torticollis, Lingual Dystonia and Dyskinesia; assay: Case history 23; type: in vivo, human
[10] = test system: Dementia, Alzheimer's-Type; assay: Case history 24; type: in vivo, human
Protocol: 24. The Symptoms Due to Dementia, Alzheimer's-Type
person one was diagnosed with Dementia. The symptoms they suffered from included memory loss and severe confusion. They tried a variety of treatments to relieve their symptoms including choldine esterase inhibitors, antidepressants, Ritilin, and aterol. […] They were then tested off of sibutramine. […] They began to suffer from a lowered I.Q. and their memory deteriorated.

Cerebral Palsy = assay: Case history 26; type: in vivo, human; conditions: sibutramine 15 mg once a day; person two
From the text: 26. The Symptoms Due to Cerebral Palsy
person two had suffered from Cerebral Palsy since birth. Their whole life they had little control of their right arm and hand, and they could not keep their arm straight and down by their side except for short periods of time and using the utmost concentration to do so. Most often they kept their arm in an upright position with their hand near or above their shoulder and their elbow bent. They had no practical use from the arm other than to hold something against their chest. Their hand was also rigid and kept in a loose fist configuration. Fine motor movements of the fingers were impossible for them. […] They had gained control of the right arm and their hand. They are able to hold their hand down by their side for longer periods of time and less concentration required to do so. For the first time in their life they were able to make controlled movements and raise their arm and hand above their head.

[11] = test system: Reflex Sympathetic Dystrophy Syndrome (RSDS); Complex Regional Pain Syndrome (CRPS); assay: Case history 27; type: in vivo, human
[12] = test system: Chronic Psychosis and Tardive Dyskinesia; assay: Case history 28; type: in vivo, human
Protocol: 28. Chronic Psychosis and Tardive Dyskinesia
They were committed to a Psychiatric Hospital multiple times and was treated with multiple neuroleptic medication from which they have developed Tardive Dyskinesia. They were administered 15 mg sibutramine a day which had immediate effects, in less then one hour the improvement was noticed by them and others. […] They continue to take sibutramine along with 15 mg of Zyprexa daily.

[13] = test system: Tourette's Tics, Asocial Behavior, and Relief of Hyposexuality; conditions: sibutramine 5 mg three times a day
[14] = test system: Non-Tourette's tics, obsessive-compulsive rituals, and attention deficit hyperactive disorder (ADHD)
[15] = test system: frontal lobe executive function, ADHD, and hyposexuality
[16] = test system: Fibromyalgia—Chronic Fatigue Syndrome
[17] = sibutramine 15 mg three times a day

## CC(C)CC(N(C)C)C1(c2ccc(Cl)cc2)CCC1.Cl (stereo not shown) [sibutramine, N,N-dimethyl-1-[1-(4-chlorophenyl)cyclobutyl]-3-methylbutylamine hydrochloride]
[1]; sibutramine 10 mg orally every
  energy, seizures, violence and self-abuse: gained new energy, had fewer seizures, and was no longer violent or self-abusive
[1]; sibutramine 10 mg orally every morning
  time to response: less than a week
[1]; single morning dose 10 mg
  wear-off of effects after administration: 5 to 6 h
[2]
  concentration and anger outbursts: able to concentrate better and had fewer and less severe anger outbursts
[2]; person
  sexual drive and interest: an increase in their sexual drive and interest
Sexual Function and ADD; sibutramine 5 mg three times daily with continuing valproic acid
  concentration and fatigue problems: no longer had the concentration and fatigue problems
Sexual Function and ADD; sibutramine 5 mg three times daily, person
  sexual interest and ability: immediately noted a new-found interest and ability to engage in sex
[3]; sibutramine 10 mg every morning, then 5 mg three times a day by mouth, person
  concentration, organization, sexual obsessive-compulsive problems: could concentrate, organize, and no longer had the sexual obsessive-compulsive problems
[3]; sibutramine by mouth
  duration of effects of each dose: about five
[4]
  sexual interest: an increased interest in sex generally, but for the first time this interest included females as well as males
[5]; human, in vivo
  tics, aggressive outbursts, concentration: rapidly relieved their tics, their aggressive outbursts, and helped their concentration
[5]; sibutramine 10 mg every morning
  wear-off of effects: wore off quickly after noon with a rapid return of all symptoms
[5]; sibutramine 10 mg three times daily
  tics, violence, concentration problems: loss of verbal and motor tics, violence, and concentration problems
[6]; sibutramine 5 mg tid
  speech, compulsive acts, social activity, sexual interest: a decrease in repetitive speech, hissing, and compulsive acts, an increase in social activity and sexual interest, and increased speech generally
[6]; sibutramine 10 mg daily, person
  violence / manageability: again became calm and manageable
[7]; rapid catabolism
  maximum duration of a single dose effect: 4 to 5 h
[7]; [17]
  ability to plan and execute (executive function): marked improvement in their ability to form appropriate, organized plans and execute them promptly without procrastination or distraction
  complaints: being “too calm” with a loss of the exciting high-risk behavior of the past
[7]; sibutramine 15 mg three times a day, person
  calm, concentration, retention of information: the first medication to calm them and permit careful, quiet concentration and retention of information
[8]
  cognition and pain: rapidly became cognitive and had pain relief
[9]; 15 mg sibutramine every six hours
  symptoms with continued dosing: prolonged and sustained relief of their symptoms
[9]; sibutramine 15
  pain: their pain subsided
  tremors, mouth opening, arm movement: their tremors considerably slowed, their mouth was no. longer pulling open as dramatically and their arm was not moving noticeably
[9]; sibutramine 15, person
  time to response: ≤ 45 min
[10]; sibutramine 15 mg once a day, person one
  memory loss and severe confusion: their symptoms quickly dissipated
[10]; taken off sibutramine
  symptoms off sibutramine: their symptoms reappeared
Cerebral Palsy
  symptoms due to Cerebral Palsy, control of right arm and hand: their symptoms due to Cerebral Palsy were relieved
[11]; 15 mg capsule of sibutramine, child
  time to pain relief: ≤ 45 min
[11]; 15 mg once a day, within 2 weeks
  toe and function: their toe became normal, and normal function was regained
[11]; back on 15 mg once a day
  pain and symptoms after restart: their pain level decreased significantly within one hour and their symptoms disappeared
[11]; first 15 mg capsule
  foot pain: dramatically better, completely relieved of pain
[11]; taken off for one day
  symptoms off sibutramine: all the previous symptoms reappeared
[12]; 15 mg sibutramine a day, with Zyprexa
  emotion and paranoia: emotional for the first time and diminishing their paranoia greatly
[12]; 15 mg sibutramine a day, person
  time to noticed improvement: one hour
[12]; after the first week
  Tardive Dyskinesia: his Tardive Dyskinesia improved
[13]
  ADHD: his ADHD improved
  communication and social skills: their communication and social skills improved
[13]; child
  motor and vocal tics, obsessive compulsive component: the motor and vocal tics associated with Tourette's Disease were decreased as well as the obsessive compulsive component
[14]; sibutramine 5 mg tid, child
  tics and OCD symptoms: stopped both the tics and the OCD symptoms, but only for a few hours
[14]; sibutramine 10 mg tid
  effect of missing a single dose: the vocal and motor tics return immediately
  sleep and appetite: Sleep and appetite were not affected
  tics and OCD symptoms: free of symptoms throughout the day
[14]; sibutramine 10 mg tid, versus dextroamphetamine, methylphenidate, pemoline
  concentration at school: better than with any of the analeptics
[15]; sibutramine
  sexual drive after radical prostatectomy: this problem of sexual drive was repaired
[15]; sibutramine 5 mg bid, pemoline and methylphenidate discontinued
  efficacy after dose decrease: without a loss of efficacy
[15]; sibutramine 10 mg. bid
  side effects: dry mouth and some insomnia
[15]; sibutramine 10 mg. bid p.o. Person
  concentration and ability to plan: immediate repair of concentration, and particularly their ability to plan and carry out these plans effectively
[16]; first night after sibutramine
  sleep: difficulty in getting to sleep that first night
[16]; sibutramine 5 mg tid p.o.
  alertness and concentration: became alert and able to concentrate
  fatigue and energy: their fatigue diminished and their energy increased substantially
  pain points: their pain points were still tender but that the burning sensation at these points had abated within 4 days
[16]; sibutramine 5 mg tid p.o. Person
  time to response after the first 5 mg capsule: ≤ 2 h

Source: US6696495B2, “Treatment of disorders secondary to organic impairments” (Snowden Pharmaceuticals, LLC, priority 1998, dated 2004)
